We go through three compounds from patent US11091484B2, “Tricyclic heterocycles as BET protein inhibitors” (Incyte Corporation, priority 2013, dated 2021).

For assay [1], the target named is BRD4-BD2 (Homo sapiens (Human), UniProt O60885). Put plainly: BRD4 AlphaScreen assay (BRD4-BD2). The format is binding. The following applies: H4Ac4 peptide, 20 nM BRD4-BD2, read-out: BRD4 BD-2 enzyme IC50. The procedure: (§1) BRD4-BD1 and BRD4-BD2 assays were conducted in white 384-well polystyrene plate in a final volume of 20 μL for BD1 and 40 μL for BD2. Inhibitors were first serially diluted in DMSO and added to the plate wells before the addition of other reaction components. The final concentration of DMSO in the assay was 1.25% (BD1) and 0.83% (BD2). The assays were carried out at room temperature for 75 min. in the assay buffer (50 mM HEPES, pH 7.4, 100 mM NaCl, 0.05% CHAPS, 0.01% BSA), containing 50 nM Biotin-labeled tetra-acetylated histone H4 peptide (H4Ac4), 3.8 nM (BRD4-BD1, BPS Bioscience #31040) or 20 nM (BRD4-BD2, BPS Bioscience #31041). The reaction followed by the addition of 20 μL of assay buffer supplemented with Streptavidin donor beads (PerkinElmer 6760002) and GSH Acceptor beads (PerkinElmer-AL109C) at 4 μg/mL under reduced light. After plate sealing, the plate was incubated in the dark at room temperature for 75 min. before reading on a PHERAstar FS plate reader (BMG Labtech). IC50 determination was performed by fitting the curve of percent control activity versus the log of the inhibitor concentration using the GraphPad Prism 5.0 software.

For assay [2], the target named is BRD4-BD1 (Homo sapiens (Human), UniProt O60885). In words: BRD4 AlphaScreen assay (BRD4-BD1). The following applies: H4Ac4 peptide, 3.8 nM BRD4-BD1, read-out: BRD4 BD-1 enzyme IC50. The class given is binding. On the procedure: as §1
(In general: Bead proximity is the source of the signal in Alpha formats.)

Assay [3] deals with KMS.12.BM cell line (human myeloma). Put plainly: KMS.12.BM cell viability assay. The class given is cell-based. The following applies: KMS.12.BM cells, 3 days, Cell Titer-GLO ATP quantitation, read-out: KMS cellular IC50. On the procedure:
KMS. 12.BM cell line (human myeloma) was purchased from JCRB (Osaka, Japan) and maintained in RPMI with 10% FBS culture medium. To measure the cytotoxic activity of the compounds through ATP quantitation, the KMS. 12.BM cells are plated in the RPMI culture medium at 5000 cells/well/per 100 μL into a 96-well polystyrene clear black tissue culture plate (Greiner-bio-one through VWR, NJ), in the presence or absence of a concentration range of test compounds. After 3 days, […] Cell Titer-GLO Luminescent (Promega, Madison, Wis.) cell culture agent is added to each well for 10 minutes at room temperature to stabilize the luminescent signal. This determines the number of viable cells in culture based on quantitation of the ATP present, which signals the presence of metabolically active cells. Luminescence is measured with the Top Count 384 (Packard Bioscience through Perkin Elmer, Boston, Mass.). […] IC50 data for the Examples is presented in Table 4 as determined by Assay B1.
On the technique in general: Cellular ATP, detected with luciferase, serves as a proxy for viable cell number.

Structures are written as SMILES. Where a name gives a salt, the structure may show the parent alone. Read-outs that look alike come from different tables or passages of the source.

What is called IC50 is the concentration that gives 50% inhibition. Turning to `Cc1cc2c(cc(N[C@H]3CCN(C)[C@@H](C)C3)c3nnc(C)n32)n1Cc1ccccc1` (racemic) [Example 224, 6-Benzyl-N-[(2S,4S)-1,2-dimethylpiperidin-4-yl]-1,7-dimethyl-6H-pyrrolo[2,3-e][1,2,4]triazolo[4,3-a]pyridin-4-amine and 6-Benzyl-N-[(2R,4R)-1,2-dimethylpiperidin-4-yl]-1,7-dimethyl-6H-pyrrolo[2,3-e][1,2,4]triazolo[4,3-a]pyridin-4-amine (Racemic Mixture Prepared)], the IC50 is ≤ 100 nM in assay [1]; ≤ 100 nM in assay [2]; ≤ 1000 nM in assay [3] (Homo sapiens, 72 h).

Turning to `Cc1nnc2ccc3c(cc(-c4ccn(CCC(=O)N(C)C)n4)n3Cc3cccc(Cl)c3)n12` [Example 103, 3-{3-[6-(3-chlorobenzyl)-1-methyl-6H-pyrrolo[2,3-e][1,2,4]triazolo[4,3-a]pyridin-7-yl]-1H-pyrazol-1-yl}-N,N-dimethylpropanamide], the IC50 in assay [3] (Homo sapiens, 72 h) was ≤ 1000 nM.

In the case of `Cc1nnc2ccc3c(cc(-c4cc[nH]n4)n3Cc3cccc(CN4CCC4)c3)n12` [Example 182, 6-[3-(Azetidin-1-ylmethyl)benzyl]-1-methyl-7-(1H-pyrazol-3-yl)-6H-pyrrolo[2,3-e][1,2,4]triazolo[4,3-a]pyridine tris(trifluoroaceate) Salt], the IC50 in assay [3] was ≤ 1000 nM.
